Structures are written as SMILES. Active and inactive are the calls of the source. The calls are words filed in the database; no cut-off is given here.

In one series the test system is Rattus norvegicus. As to the kind of experiment: Induction of hypnotic activity in iv dosed Sprague-Dawley rat assessed as time duration of loss of righting reflex. It is filed as functional.
Settings: not given
Consider `CCCOC(=O)Cc1cc(OCC)c(OCC(=O)N(CC)CC)cc1F`, for which the Time is on record as 215.3 s.

As for `CCN(CC)C(=O)COc1c(F)cc(CC(=O)OC(C)C(F)(F)F)cc1OC` (configuration not stated), the Time came out at 84.2 s.

Regarding `CCN(CC)C(=O)COc1cc(F)c(CC(=O)OC(C)C(F)(F)F)cc1OC` (configuration not stated), the Time is 88.9 s.

In the case of `CCOc1c(OCC(=O)N(CC)CC)ccc(CC(=O)OC(C)C(F)(F)F)c1F` (configuration not stated), the Time was 89.8 s.

Take `CCCOC(=O)Cc1ccc(OCC(=O)N(CC)CC)c(OC)c1` [PROPANIDID]: the Time stood at 93.3 s.

On to `CCN(CC)C(=O)COc1ccc(CC(=O)OC(C)C(F)(F)F)c(F)c1OC` (configuration not stated), for which the Time came out at 92.6 s.

Regarding `CCCOc1cc(CC(=O)OC(C)C)c(F)cc1OCC(=O)N(CC)CC`, the Time turned out to be 133.9 s.

Turning to `CCOC(=O)Cc1cc(F)c(OCC(=O)N(CC)CC)c(OCC)c1`, the Time was found to be 66.5 s.

As to `CCN(CC)C(=O)COc1cc(F)c(CC(=O)OC(C)C)cc1OC`, the Time is 86.6 s.

Consider `CCOc1cc(CC(=O)OC(C)C)cc(F)c1OCC(=O)N(CC)CC`, for which the Time was determined as 92.7 s.

Take `CCOc1c(OCC(=O)N(CC)CC)ccc(CC(=O)OCC(F)(F)F)c1F`: the Time is given as 83.3 s.

Take `CCCOC(=O)Cc1ccc(OCC(=O)N(CC)CC)c(OCC)c1F`: the Time worked out at 81.4 s.

For `CCOC(=O)Cc1ccc(OCC(=O)N(CC)CC)c(OCC)c1F`, the Time stood at 77.7 s.

In the case of `CCN(CC)C(=O)COc1c(F)cc(CC(=O)OCC(F)(F)F)cc1OC`, the Time was determined as 71.1 s.

Consider `CCOc1c(OCC(=O)N(CC)CC)ccc(CC(=O)OC(C)C)c1F`, for which the Time came out at 102.9 s.

Regarding `CCN(CC)C(=O)COc1cc(F)c(CC(=O)OCC(F)(F)F)cc1OC`, the Time came to 75.4 s.

As to `CCOc1cc(CC(=O)OC(C)C(F)(F)F)cc(F)c1OCC(=O)N(CC)CC` (configuration not stated), the Time is recorded as 88.8 s.

A further series deals with Rattus norvegicus. As to the kind of experiment: Induction of hypnotic activity in iv dosed Sprague-Dawley rat assessed as reflex depression 20 secs following injection. It is filed as functional, organism-based.
Settings: not given
Regarding `CCCOC(=O)Cc1ccc(OCC(=O)N(CC)CC)c(OC)c1` [PROPANIDID], the outcome was Active.

The test system of another series is Rattus norvegicus. In words: Induction of hypnotic activity in iv dosed Sprague-Dawley rat assessed as reflex depression 10 secs following injection. In kind it is functional, organism-based.
Settings: not given
Consider `CCCOC(=O)Cc1ccc(OCC(=O)N(CC)CC)c(OC)c1` [PROPANIDID], for which the result was Active.

Test system in another series: not listed separately
In words: Therapeutic index, ratio of […] for Sprague-Dawley rat by rotarod test to HD50 for hypnotic activity in iv dosed Sprague-Dawley rat. It is filed as organism-based. Particulars: in vivo, read-out: TI.
As to `CCCOC(=O)Cc1cc(OCC)c(OCC(=O)N(CC)CC)cc1F`, the selectivity ratio was 13.3.

With `CCN(CC)C(=O)COc1c(F)cc(CC(=O)OC(C)C(F)(F)F)cc1OC` (configuration not stated), the selectivity ratio turned out to be 9.6.

`CCN(CC)C(=O)COc1cc(F)c(CC(=O)OC(C)C(F)(F)F)cc1OC` (configuration not stated): the selectivity ratio stood at 9.7.

Consider `CCOc1c(OCC(=O)N(CC)CC)ccc(CC(=O)OC(C)C(F)(F)F)c1F` (configuration not stated), for which the selectivity ratio amounted to 7.4.

Consider `CCCOC(=O)Cc1ccc(OCC(=O)N(CC)CC)c(OC)c1` [PROPANIDID], for which the selectivity ratio was found to be 9.6.

In the case of `CCN(CC)C(=O)COc1ccc(CC(=O)OC(C)C(F)(F)F)c(F)c1OC` (configuration not stated), the selectivity ratio was found to be 7.4.

With `CCCOc1cc(CC(=O)OC(C)C)c(F)cc1OCC(=O)N(CC)CC`, the selectivity ratio turned out to be 9.6.

Take `CCOC(=O)Cc1cc(F)c(OCC(=O)N(CC)CC)c(OCC)c1`: the selectivity ratio was determined as 12.1.

Take `CCN(CC)C(=O)COc1cc(F)c(CC(=O)OC(C)C)cc1OC`: the selectivity ratio was found to be 13.5.

Regarding `CCOc1cc(CC(=O)OC(C)C)cc(F)c1OCC(=O)N(CC)CC`, the selectivity ratio amounted to 13.1.

Regarding `CCOc1c(OCC(=O)N(CC)CC)ccc(CC(=O)OCC(F)(F)F)c1F`, the selectivity ratio was determined as 7.7.

As to `CCCOC(=O)Cc1ccc(OCC(=O)N(CC)CC)c(OCC)c1F`, the selectivity ratio amounted to 10.4.

Regarding `CCOC(=O)Cc1ccc(OCC(=O)N(CC)CC)c(OCC)c1F`, the selectivity ratio came out at 10.1.

With `CCN(CC)C(=O)COc1c(F)cc(CC(=O)OCC(F)(F)F)cc1OC`, the selectivity ratio came to 9.8.

Consider `CCOc1c(OCC(=O)N(CC)CC)ccc(CC(=O)OC(C)C)c1F`, for which the selectivity ratio was 9.2.

Consider `CCN(CC)C(=O)COc1cc(F)c(CC(=O)OCC(F)(F)F)cc1OC`, for which the selectivity ratio is 9.3.

On to `CCOc1cc(CC(=O)OC(C)C(F)(F)F)cc(F)c1OCC(=O)N(CC)CC` (configuration not stated), for which the selectivity ratio amounted to 9.9.

Test system in another series: not listed separately
As to the kind of experiment: Toxicity in Sprague-Dawley rat assessed as motor coordination by rotarod test. It is filed as organism-based. The settings on record: in vivo. For orientation: Falling from the rotarod earlier than controls is read as motor impairment.
A word on the TD50: it is the 50% point of the dose-response relation for the toxic effect studied. With `CCCOC(=O)Cc1cc(OCC)c(OCC(=O)N(CC)CC)cc1F`, the TD50 was 70.5 mg/kg.

On to `CCN(CC)C(=O)COc1c(F)cc(CC(=O)OC(C)C(F)(F)F)cc1OC` (configuration not stated), for which the TD50 was 148 mg/kg.

For the compound `CCN(CC)C(=O)COc1cc(F)c(CC(=O)OC(C)C(F)(F)F)cc1OC` (configuration not stated), the TD50 turned out to be 151 mg/kg.

Turning to `CCOc1c(OCC(=O)N(CC)CC)ccc(CC(=O)OC(C)C(F)(F)F)c1F` (configuration not stated), the TD50 came to 182 mg/kg.

With `CCCOC(=O)Cc1ccc(OCC(=O)N(CC)CC)c(OC)c1` [PROPANIDID], the TD50 turned out to be 80.6 mg/kg.

As for `CCN(CC)C(=O)COc1ccc(CC(=O)OC(C)C(F)(F)F)c(F)c1OC` (configuration not stated), the TD50 was determined as 158 mg/kg.

With `CCCOc1cc(CC(=O)OC(C)C)c(F)cc1OCC(=O)N(CC)CC`, the TD50 is 102 mg/kg.

With `CCOC(=O)Cc1cc(F)c(OCC(=O)N(CC)CC)c(OCC)c1`, the TD50 was determined as 224 mg/kg.

`CCN(CC)C(=O)COc1cc(F)c(CC(=O)OC(C)C)cc1OC`: the TD50 worked out at 155 mg/kg.

For the compound `CCOc1cc(CC(=O)OC(C)C)cc(F)c1OCC(=O)N(CC)CC`, the TD50 came to 256 mg/kg.

As to `CCOc1c(OCC(=O)N(CC)CC)ccc(CC(=O)OCC(F)(F)F)c1F`, the TD50 was determined as 162 mg/kg.

Consider `CCCOC(=O)Cc1ccc(OCC(=O)N(CC)CC)c(OCC)c1F`, for which the TD50 turned out to be 173 mg/kg.

As to `CCOC(=O)Cc1ccc(OCC(=O)N(CC)CC)c(OCC)c1F`, the TD50 was determined as 200 mg/kg.

For `CCN(CC)C(=O)COc1c(F)cc(CC(=O)OCC(F)(F)F)cc1OC`, the TD50 was determined as 165 mg/kg.

`CCOc1c(OCC(=O)N(CC)CC)ccc(CC(=O)OC(C)C)c1F`: the TD50 stood at 165 mg/kg.

As for `CCN(CC)C(=O)COc1cc(F)c(CC(=O)OCC(F)(F)F)cc1OC`, the TD50 turned out to be 171 mg/kg.

`CCOc1cc(CC(=O)OC(C)C(F)(F)F)cc(F)c1OCC(=O)N(CC)CC` (configuration not stated): the TD50 was determined as 181 mg/kg.

For a further series, the target named is Glutamate NMDA receptor (Rattus norvegicus) (UniProt P35439+Q00959+Q00960+Q00961+Q62645+Q8VHN2+Q9R1M7). As to the kind of experiment: Displacement of [3H]MK801 from NMDA receptor in Sprague-Dawley rat cerebral cortex membrane at 50 umol by liquid scintillation counting. In kind it is tissue-based.
Settings: not given
Background: Loss of bound radioactivity is the signal in a displacement assay; it reports binding, not function.
For `CCCOC(=O)Cc1cc(OCC)c(OCC(=O)N(CC)CC)cc1F`, the result was inactive.

`CCN(CC)C(=O)COc1c(F)cc(CC(=O)OC(C)C(F)(F)F)cc1OC` (configuration not stated): the outcome was inactive.

On to `CCN(CC)C(=O)COc1cc(F)c(CC(=O)OC(C)C(F)(F)F)cc1OC` (configuration not stated), for which the outcome was inactive.

As to `CCOc1c(OCC(=O)N(CC)CC)ccc(CC(=O)OC(C)C(F)(F)F)c1F` (configuration not stated), the result was inactive.

On to `CCCOC(=O)Cc1ccc(OCC(=O)N(CC)CC)c(OC)c1` [PROPANIDID], for which the outcome was inactive.

For the compound `CCN(CC)C(=O)COc1ccc(CC(=O)OC(C)C(F)(F)F)c(F)c1OC` (configuration not stated), the result was inactive.

For `CCCOc1cc(CC(=O)OC(C)C)c(F)cc1OCC(=O)N(CC)CC`, the outcome was inactive.

For `CCOC(=O)Cc1cc(F)c(OCC(=O)N(CC)CC)c(OCC)c1`, the outcome was inactive.

`CCN(CC)C(=O)COc1cc(F)c(CC(=O)OC(C)C)cc1OC`: the outcome was inactive.

Consider `CCOc1cc(CC(=O)OC(C)C)cc(F)c1OCC(=O)N(CC)CC`, for which the outcome was inactive.

With `CCOc1c(OCC(=O)N(CC)CC)ccc(CC(=O)OCC(F)(F)F)c1F`, the result was inactive.

In the case of `CCCOC(=O)Cc1ccc(OCC(=O)N(CC)CC)c(OCC)c1F`, the result was inactive.

As for `CCOC(=O)Cc1ccc(OCC(=O)N(CC)CC)c(OCC)c1F`, the outcome was inactive.

Take `CCN(CC)C(=O)COc1c(F)cc(CC(=O)OCC(F)(F)F)cc1OC`: the outcome was inactive.

With `CCOc1c(OCC(=O)N(CC)CC)ccc(CC(=O)OC(C)C)c1F`, the outcome was inactive.

As to `CCN(CC)C(=O)COc1cc(F)c(CC(=O)OCC(F)(F)F)cc1OC`, the result was inactive.

For the compound `CCOc1cc(CC(=O)OC(C)C(F)(F)F)cc(F)c1OCC(=O)N(CC)CC` (configuration not stated), the result was inactive.

For the next series, the system named is Rattus norvegicus. As to the kind of experiment: Induction of hypnotic activity in iv dosed Sprague-Dawley rat assessed as loss of righting reflex. In kind it is functional.
Settings: not given
On to `CCCOC(=O)Cc1cc(OCC)c(OCC(=O)N(CC)CC)cc1F`, for which the HD50 worked out at 5.3 mg/kg.

Regarding `CCN(CC)C(=O)COc1c(F)cc(CC(=O)OC(C)C(F)(F)F)cc1OC` (configuration not stated), the HD50 was determined as 15.4 mg/kg.

With `CCN(CC)C(=O)COc1cc(F)c(CC(=O)OC(C)C(F)(F)F)cc1OC` (configuration not stated), the HD50 came out at 15.6 mg/kg.

`CCOc1c(OCC(=O)N(CC)CC)ccc(CC(=O)OC(C)C(F)(F)F)c1F` (configuration not stated): the HD50 worked out at 24.6 mg/kg.

With `CCCOC(=O)Cc1ccc(OCC(=O)N(CC)CC)c(OC)c1` [PROPANIDID], the HD50 worked out at 8.5 mg/kg.

Regarding `CCN(CC)C(=O)COc1ccc(CC(=O)OC(C)C(F)(F)F)c(F)c1OC` (configuration not stated), the HD50 is 21.4 mg/kg.

Take `CCCOc1cc(CC(=O)OC(C)C)c(F)cc1OCC(=O)N(CC)CC`: the HD50 is 10.6 mg/kg.

On to `CCOC(=O)Cc1cc(F)c(OCC(=O)N(CC)CC)c(OCC)c1`, for which the HD50 is 18.5 mg/kg.

For the compound `CCN(CC)C(=O)COc1cc(F)c(CC(=O)OC(C)C)cc1OC`, the HD50 is 11.5 mg/kg.

Regarding `CCOc1cc(CC(=O)OC(C)C)cc(F)c1OCC(=O)N(CC)CC`, the HD50 was determined as 19.5 mg/kg.

Consider `CCOc1c(OCC(=O)N(CC)CC)ccc(CC(=O)OCC(F)(F)F)c1F`, for which the HD50 was 21.1 mg/kg.

Consider `CCCOC(=O)Cc1ccc(OCC(=O)N(CC)CC)c(OCC)c1F`, for which the HD50 stood at 16.6 mg/kg.

Turning to `CCOC(=O)Cc1ccc(OCC(=O)N(CC)CC)c(OCC)c1F`, the HD50 amounted to 19.8 mg/kg.

Take `CCN(CC)C(=O)COc1c(F)cc(CC(=O)OCC(F)(F)F)cc1OC`: the HD50 stood at 16.9 mg/kg.

For `CCOc1c(OCC(=O)N(CC)CC)ccc(CC(=O)OC(C)C)c1F`, the HD50 worked out at 17.9 mg/kg.

For `CCN(CC)C(=O)COc1cc(F)c(CC(=O)OCC(F)(F)F)cc1OC`, the HD50 was 18.4 mg/kg.

On to `CCOc1cc(CC(=O)OC(C)C(F)(F)F)cc(F)c1OCC(=O)N(CC)CC` (configuration not stated), for which the HD50 came out at 18.3 mg/kg.

Source of the values: ChEMBL document CHEMBL3351378, “Phenyl acetate derivatives, fluorine-substituted on the phenyl group, as rapid recovery hypnotic agents with reflex depression” (Eur J Med Chem, 2015).
